From patent publication US4980349A, “Sulphonamides derived from diarylmethanes, the processes for preparing them and pharmaceutical compositions containing them” (SANOFI, priority 1986, dated 1990)
Entries after “also recorded” stand apart in the source; their conditions may differ.

Key:
[1] = system: rat hind foot kaolin-induced arthritis; assay: Kaolin-induced arthritis test, second experiment, acute phase (volume of the foot at the 8th hour); assay type: in vivo; settings: po, 8 h, Table IXa; for change in vivo at 25 mg/kg / change in vivo at 50 mg/kg / change in vivo at 100 mg/kg: 8th hour, read-out: percentage significant decrease in the volume of the treated foot; for ED50: foot volume, read-out: 50% active dose
Description: (§1) The […] of 0.05 ml of a sterile 10% strength suspension of kaolin into the metatarsal flexor sheath of the hind foot of a rat initially induces an oedematous reaction. An inflammatory arthritis then forms.
The early oedematous reaction appears from the first hour, and reaches its maximum between the fourth hour and the sixth hour. This is the manifestation of interest. The assessment of the volume of the foot enables the action of substances on the oedematous reaction to be studied. The measurements are carried out using a Giono and Chevilard plethysmometer.
(§2) The test products are administered orally (stomach tube) one hour before the injection of the kaolin.
(§3) In a second experiment, a more elaborate study was performed in order to ascertain the effect of the products, on the one hand on the acute phase of the inflammatory reaction (measured by the volume of the foot at the 8th hour), and on the other hand on the chronic phase (activity measured by the weight of the foot at the 12th hour).
As in the previous experiment, ketoprofen was used as the comparative product:
The results are expressed as a percentage significant decrease in the volume of the treated foot compared with the controls.

[2] = system: rat hind foot kaolin-induced arthritis; assay: Kaolin-induced arthritis test, second experiment, chronic phase (weight of the foot at the 12th hour); assay type: in vivo; settings: po, 12 h, Table IXb; for change in vivo at 25 mg/kg / change in vivo at 50 mg/kg / change in vivo at 100 mg/kg: 12th hour, read-out: percentage significant decrease in the weight of the treated foot; for ED50: foot weight, read-out: 50% active dose
Description: as §1, §2, §3
As in the previous experiment, ketoprofen was used as the comparative product: […]

[3] = system: rat hind foot carragheenin-induced oedema; assay: Carragheenin-induced oedema test; assay type: in vivo; settings: 3 h, second experiment, Table Xa, read-out: percentage inhibition of the inflammation; for change in vivo at 25 mg/kg: 25 mg/kg oral; for change in vivo at 50 mg/kg: 50 mg/kg oral; for change in vivo at 100 mg/kg: 100 mg/kg oral
Description: In this test, 10 rats are used per test compound of the invention. Control batches of 10 rats also receive either the comparative compound (ketoprofen) or exclusively an NaCl solution.
The compounds of the invention are administered orally (stomach tube) one hour before the injection of carragheenin.
The carragheenin is suspended at a concentration of 1% in a 0.9% isotonic sodium chloride solution. The volume injected into the rat's foot is 0.20 ml.
The volume of the foot is measured before the injection and 3 hours later. The antagonistic effect of the products towards carragheenin is reflected in the inhibition of the volume of the oedema compared with control rats. The latter receive only isotonic NaCl solution under identical conditions.

[4] = system: foreign-body (sponge) granuloma in rats; assay: Experimental granuloma induced by foreign body, histological study; assay type: in vivo, Wistar rats; settings: second experiment, day 8; Table XIa
Description: (§4) This test consists in studying the subacute cellular phase which is developed in the 8 days which follow the implantation of a foreign body, a sponge of non-resorbable plastic, in the dorsal subcutaneous connective tissue in rats.
The granulomas formed are removed 8 days after the implantation; a histological study is carried out after fixing the tissue and staining sections with hematein/ eosin. The observation is more especially concerned with the cell population of the primary phase of the formation of the granulation tissue: the reticulohistocytic cells, lymphocytes and more especially the macrophages.
(§5) The animals used are Wistar rats weighing 120-140 g and of the same origin, maintained under the same conditions of housing throughout the treatment (8 days).
(§6) The compounds of the invention are administered orally, in a gum suspension, in the morning in a fasted state, using an oesophageal tube.
After 8 days of treatment, the rats are sacrificed by decapitation and the granulomas removed and prepared for the purpose of histological examination.
The experiment conditions are as follows:
The animals are distributed in batches of 10;
Each test product is administered at 2 doses, of 50 and 100 mg, respectively, to 2 batches of 10 animals;
Ketoprofen is used by way of reference product at the same 2 doses and under the same conditions; and
A batch of 10 control animals receives no treatment.
(§7) In this experiment, on the one hand a histological study of the granulomas is performed by sampling on day 8 (results recorded in Table XIa), and on the other hand a study of the weight of the granulomas was performed 10 days after the implantation (results recorded in Table XIb).

[5] = system: foreign-body (sponge) granuloma in rats; assay: Experimental granuloma induced by foreign body, weight of the granulomas; assay type: in vivo, Wistar rats; settings: Rattus norvegicus, po, 240 h, 10 days after implantation, Table XIb, read-out: decrease in the weight of the granulomas
Description: as §4, §5, §6, §7

[6] = system: pain threshold of brewer's yeast inflamed rat hind foot; assay: Randall and Sellitto's test (analgesic activity); assay type: in vivo; settings: second experiment, Table XIIa; for change in vivo at 25 mg/kg: 25 mg/kg oral; for change in vivo at 25 mg/kg / change in vivo at 50 mg/kg / change in vivo at 100 mg/kg: read-out: percentage increase in the mean pain threshold; for change in vivo at 50 mg/kg: 50 mg/kg oral; for change in vivo at 100 mg/kg: 100 mg/kg oral
Description: Inflammation increases the sensitivity to pain, in particular to pressure, and analgesics raise the threshold of the sensitivity.
The inflammation is obtained by injecting 0.1 ml of a 20% strength aqueous suspension of brewer's yeast under the plantar aponeurosis of one of the hind feet. […] The pain threshold is assessed in terms of the force necessary and sufficient to initiate a characteristic reaction of withdrawing the foot.
The sensitivity to pain of the inflamed foot reaches a plateau 4 hours after the injection of the brewer's yeast, and then remains stable until the 6th hour. The pain threshold of the inflamed foot in control rats weighing 140 g is reached for pressures of 50 to 60 g, whereas it is around 160 g for the intact foot.
The action of the substance administered orally to series of 10 rats is expressed in terms of the percentage increase in the mean pain threshold, compared with that measured in the rats of a control series of 10 animals which have not received a compound of the invention.
The test products are administered orally (stomach tube) one hour before the injection of brewer's yeast.
The comparative compound used is ketoprofen.

[7] = system: biosynthesis of leukotrienes B4 (LTB4), human polymorphonuclear leukocytes; assay: Biosynthesis of LTB4, isomers and oxidized metabolites in human polymorphonuclear leukocytes; assay type: cell-based; settings: Leukocyte, second experiment, read-out: Percentage inhibition of LTB4 formation
Description: Polymorphonuclear leukocytes are isolated from human blood and used during the 6 hours following the withdrawal. The viability of the cells is checked by trypan blue exclusion.
5×10^6 cells are incubated for 10 minutes at 37° C. in the presence of the test product dissolved in DMSO, and are stimulated with ionophore A 23187 (Galbiochem, 10 μM) in PBS buffer at pH 7.4, Ca^2+ and Mg^2+ =1 μM.
100 ng of prostaglandin B2 (PGB2), dissolved in methanol, are added at the end of the reaction to act as an internal standard.
On centrifugation, the culture supernatant is withdrawn. The latter is retrieved under argon and stored at -80° C. until analysed by HPLC.
This analysis is carried out by injecting 250 μl onto a 5 μm ODS ultrasphere column (Beckmann), with a gradient of acetonitrile (20-80%) in water, at pH 7.4.
The amounts of the different products which absorb at 269 nm, i.e. leukotrienes B4 (LTB4), isomers of LTB4 and oxidized metabolites of LTB4, are estimated by comparison with the internal standard.
The test product is used at a concentration of 40 μM.
They are expressed either as a percentage inhibition, or as a percentage increase in the production of LTB4, isomers of LTB4 and oxidized metabolites of LTB4 (designated by +).
The experimental model is the same as that described in Section 2.1. Other products are tested by comparison with the compound of the invention no. 1574, used as a control.

Structure (SMILES)	change in vivo at 25 mg/kg [1]	change in vivo at 50 mg/kg [1]	change in vivo at 100 mg/kg [1]	ED50 [1]	change in vivo at 25 mg/kg [2]	change in vivo at 50 mg/kg [2]	change in vivo at 100 mg/kg [2]	ED50 [2]	change in vivo at 25 mg/kg [3]	change in vivo at 50 mg/kg [3]	change in vivo at 100 mg/kg [3]	histological study of the granuloma (inflammatory connective / granulation tissue) [4]	change in vivo at 25 mg/kg [5]	change in vivo at 50 mg/kg [5]	change in vivo at 100 mg/kg [5]	change in vivo at 25 mg/kg [6]	change in vivo at 50 mg/kg [6]	change in vivo at 100 mg/kg [6]	inhibition at 40 µM [7]	ED50 ([6]; po, analgesia, read-out: 50% active dose)
O=C(O)CCCCCCCCCCNS(=O)(=O)c1ccc(Cl)c(C(=O)c2ccc(Cl)cc2)c1 [Compound 1761]	-38 ± 5%	-45 ± 5%	-50 ± 5%	100 mg/kg	-40 ± 5%	-45 ± 5%	-50 ± 5%	100 mg/kg	-30%	-35%	-45%	Diminished production of inflammatory granulation	-25%	-30%	-45%	40%	45%	50%	100%	
O=C(O)CCCCCCCCCCNS(=O)(=O)c1ccc(Cl)c(C(=O)c2ccc(Cl)cc2Cl)c1 [Compound 1763]	-35 ± 5%	-45 ± 5%	-50 ± 5%	100 mg/kg	-38 ± 5%	-40 ± 5%	-48 ± 5%	100 mg/kg	-30%	-35%	-45%	Peripheral shell of low density	-15%	-20%	-45%	40%	42%	45%	100%	
O=C(O)CCCCCCCCCCCNS(=O)(=O)c1ccc(Cl)c(C(=O)c2ccc(Cl)cc2Cl)c1 [Compound 1764]	-45 ± 5%	-55 ± 5%	-60 ± 5%	50 mg/kg	-45 ± 5%	-52 ± 5%	-58 ± 5%	50 mg/kg	-45%	-48%	-52%	Peripheral shell of low density; also recorded: lightly inflammatory	-45%	-50%	-55%	50%	55%	58%	100%	25 mg/kg
O=C(O)CCCCCCCCCCCNS(=O)(=O)c1ccc(Cl)cc1C(=O)c1ccccc1Cl [Compound 1755]	-48 ± 5%	-50 ± 5%	-55 ± 5%	25 mg/kg	-45%	-55%	-58%	25 mg/kg	-45%	-52%	-55%	Granuloma poorly developed	-45%	-50%	-55%	40%	50%	55%	100%	
